Measurements: PubChem BioAssay (NCI)
Where “and” joins values, the source holds several entries; their conditions need not be identical. Equal entries are not always repeated.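 Results reflect a 48-hour exposure of cells in 96-well plates to compound at five concentrations. The concentration for 50% growth inhibition is given as GI50. TGI is the concentration that stops growth completely.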

Assays:
Experiment in all cases: growth of human tumour cells (NCI), 48 h
[1] = test system: COLO 205 colon
[2] = test system: DU-145 prostate
[3] = test system: M14 melanoma
[4] = test system: NCI-H522 lung
[5] = test system: OVCAR-3 ovarian
[6] = test system: OVCAR-8 ovarian
[7] = test system: RXF 393 renal
[8] = test system: SN12C renal
[9] = test system: T-47D breast
[10] = test system: CAKI-1 renal

| Compound | GI50 [1] | GI50 [2] | TGI [2] [µM] | GI50 [3] | TGI [3] [µM] | GI50 [4] [µM] | TGI [4] [µM] | GI50 [5] [µM] | TGI [5] [µM] | GI50 [6] | TGI [6] [µM] | GI50 [7] [µM] | TGI [7] [µM] | GI50 [8] [µM] | TGI [8] [µM] | GI50 [9] [µM] | TGI [9] [µM] | TGI [10] [µM] | TGI [1] | GI50 [10] [µM] |
| --- | --- | --- | --- | --- | --- | --- | --- | --- | --- | --- | --- | --- | --- | --- | --- | --- | --- | --- | --- | --- |
| Nc1ccccc1NC(=O)c1ccc(CN2CCC/C(=C\c3cccc(Cl)c3)C2=O)cc1 | 0.157 µM | 0.432 µM | 25.7 | 0.0521 µM | 13.7 | 0.225 | 1.06 | 0.406 | 7.7 | 0.334 µM | > 100 | 0.277 | 5.23 | 0.708 | 85.3 | 3.34 | 56.6 |  |  |  |
| COc1cc2cc[n+]3c4cc(OC)c(OC)cc4c(C)cc3c2cc1OC |  |  |  |  | > 100 |  | > 100 |  | > 100 |  | > 100 |  |  |  | > 100 |  |  | > 100 | > 100 µM |  |
| CNc1ccc(-c2cc(=O)oc3ccc(Cl)cc23)cc1 | 0.278 µM and 0.201 µM | 0.183 µM and 0.155 µM |  | 0.0393 µM and 0.0313 µM | > 100 | 0.03 | 0.311 | 0.0342 | 0.27 | 0.601 µM and 0.197 µM | > 100 | 0.0912 | > 100 |  | > 100 |  |  | > 100 | 1.17 µM and 1.27 µM |  |
| COc1cccc(NC(=O)CC(=O)N2NC(C)C(N=Nc3cccc(C(=O)O)c3)C2=O)c1 (configuration not stated) |  |  |  |  | > 100 |  | > 100 |  | > 100 |  | > 100 |  |  |  | > 100 |  |  | > 100 | > 100 µM |  |
| Cc1cc(C)cc(Sc2c([N+](=O)[O-])ncn2C)c1 |  |  |  |  | 27.6 |  | 20 |  | 34.3 |  | 29.7 |  |  |  | 31.8 |  |  | 89.2 | 31.8 µM |  |
| O=C1/C(=C\c2coc3ccccc3c2=O)c2ccccc2N1c1c(Cl)cccc1Cl | 3.82 µM | 4.71 µM | > 100 | 5.28 µM | 97.4 |  |  | 2.71 | 10.3 | 5.47 µM | 48.8 | 1.86 | 5.11 | 3.35 | > 100 | 3.05 | 31.1 | > 100 | 36 µM | 2.45 |
| Cc1cc(NS(=O)(=O)c2ccc(NC(=O)c3cccc4c(Nc5ccc(S(=O)(=O)Nc6cc(C)on6)cc5)c5ccccc5nc34)cc2)no1 |  |  |  |  | > 100 |  | 51.7 |  | > 100 |  | > 100 |  | 61.5 |  | > 100 |  |  | > 100 | > 100 µM |  |
| O=C(O)C1CCCCN1C(=O)c1ccccc1 (configuration not stated) |  |  |  |  | > 100 |  |  |  | > 100 |  | > 100 |  | > 100 |  | > 100 |  |  |  | > 100 µM |  |
| COc1cccc(C2NC(=S)NC(C)=C2C(=O)Nc2ccc(F)c(Cl)c2)c1 (configuration not stated) | 27.2 µM | 36.3 µM | > 50 | 25.2 µM | > 50 | 20.8 | > 50 | 41.3 | > 50 | 34.6 µM | > 50 |  |  | 26.1 | > 50 | > 50 | > 50 | > 50 | > 50 µM | 48.9 |
| CCC[CH2][Sn]([CH2]CCC)([O]C(=O)c1nccnc1N)[O]C(=O)c1nccnc1N | 0.899 µM |  |  | 1.23 µM | 2.49 | 0.052 | 0.18 | 1.21 | 2.45 | 1.21 µM | 2.45 | 0.187 | 1.31 | 0.791 | 2.04 |  |  | 1.77 | 2.1 µM | 0.226 |
| O=C(Nc1ccccc1Br)c1cccc([N+](=O)[O-])c1O |  |  |  |  | 28.9 |  | 6.4 |  | 7.51 |  | > 71.4 |  | 6.71 |  | > 81.8 |  |  | > 43.8 | > 33.4 µM |  |
| COc1cccc(C2C3=C(COC3=O)N(CCO)c3cc4c(cc32)OCCO4)c1 (configuration not stated) | 0.108 µM | 0.157 µM | 0.65 | 0.052 µM | 0.19 | 0.00807 | 0.0208 | 0.0878 | 0.254 | 0.22 µM | > 50 |  |  |  | > 50 | 0.239 | > 50 | > 34.8 | 0.268 µM | 0.145 |
| CC[O-].Cc1ccc2cccc([O-])c2n1.Cc1ccc2cccc([O-])c2n1.Cc1ccc2cccc([O-])c2n1.[Ti+4] | 19.5 µM |  |  | 22.2 µM | > 53.5 | 14 | 30.4 | 34.1 | > 100 | 12.4 µM | 47.1 | 30.9 | 70.9 | 65.3 | > 100 |  |  | > 100 | 39.8 µM | > 86.6 |
| N#CC(C#N)=CSc1ccccc1 |  |  |  |  | 66.8 |  | 24.5 |  | > 100 |  | 37.1 |  | 45.2 |  | 59.8 |  |  | 74.1 | 55.3 µM |  |
| N#CCC(=O)N/N=C1\C(=O)N(c2ccc(Cl)cc2)C(=O)C(=O)C1c1nc2ccccc2o1 (configuration not stated) |  |  |  |  | > 100 |  | > 100 |  | > 100 |  | > 100 |  | > 100 |  | > 100 |  |  | > 100 | > 100 µM |  |
| CC1=C([Se]CC(OC(=O)[C@@H](CO)NC(=O)OC(C)(C)C)C(=O)NC(C)(C)C)C(=O)c2ccccc2C1=O (some centres not stated) | 1.83 µM | 1.9 µM | 3.37 | 1.66 µM | 3.04 | 1.6 | 3.14 | 1.8 | 3.19 |  |  | 1.86 | 3.28 | 1.85 | 3.41 | 0.332 | 1.06 | 3.39 | 3.3 µM | 1.76 |
| CC1(C)C(=S)C(C)(C)C1=S |  |  | > 100 |  | > 100 |  |  |  | > 100 |  |  |  |  |  | > 100 |  | > 100 |  | > 100 µM |  |
| COc1ccc(Cc2cnc(NC(=O)c3sc4ccccc4c3Cl)s2)cc1 | 0.39 µM | 0.37 µM | > 100 |  |  | 0.279 |  |  |  | 0.508 µM | > 100 | 0.179 | 0.579 | 0.687 | > 100 | 0.768 | > 100 | > 100 | 13.3 µM | 0.487 |
| CCN(CC)CCNC(=O)c1cccc2cc3ccccc3nc12 |  |  |  |  | 21.7 |  |  |  | 61.5 |  | > 100 |  | 10.7 |  | 51.4 |  |  | > 100 | 20.2 µM |  |
